Measured values published in paper PMC8398255, “Synthesis of 3,5-Bis(trifluoromethyl)phenyl-Substituted Pyrazole Derivatives as Potent Growth Inhibitors of Drug-Resistant Bacteria” (Molecules, 2021).
In brackets after ≈: the same amount, converted by molar mass.

Key:
[1] = system: Bacillus subtilis ATCC 6623 (Bs); experiment: MIC, microdilution (CLSI); format: cell-based; settings: ATCC6623; Bs, Bacillus subtilis ATCC 6623; n = 3; read-out: MIC
Procedure: (§1) Compounds were dissolved in dimethyl sulfoxide (DMSO) to achieve a starting concentration of 32 µg/mL as described by us previously. Compounds were further diluted two-fold across the 96-well honeycomb plate columns in cation adjusted Mueller Hinton broth (CAMHB), and bacterial culture was added. Plates were incubated for 18–20 h at 35 ℃ before determining the minimum concentrations at which wells had no visible turbidity to the naked eye. The MIC values were determined from at least a duplicate result obtained from three independent experiments using fresh bacterial cultures on different days.

[2] = system: E. faecalis ATCC 29212 (Ef12); experiment: MIC, microdilution (CLSI); format: cell-based; settings: Enterococcus faecalis, ATCC29212; Ef12, antibiotic susceptible E. faecalis ATCC 29212; n = 3; read-out: MIC
Procedure: as §1

[3] = system: E. faecalis ATCC 51299 (Ef99); experiment: MIC, microdilution (CLSI); format: cell-based; settings: Enterococcus faecalis, ATCC 51299 / VRE; Ef99, vancomycin-resistant (VRE) E. faecalis ATCC 51299; n = 3; read-out: MIC
Procedure: as §1

[4] = system: E. faecium ATCC 700221 (Ef21); experiment: MIC, microdilution (CLSI); format: cell-based; settings: Enterococcus faecium, ATCC 700221 / VRE; Ef21, vancomycin-resistant (VRE) E. faecium ATCC 700221; n = 3; read-out: MIC
Procedure: as §1

[5] = system: S. aureus ATCC 25923 (Sa23); experiment: MIC, microdilution (CLSI); format: cell-based; settings: Staphylococcus aureus, ATCC25923; Sa23, antibiotic susceptible S. aureus ATCC 25923; n = 3; read-out: MIC
Procedure: as §1

[6] = system: S. aureus ATCC 33591 (Sa91); experiment: MIC, microdilution (CLSI); format: cell-based; settings: Staphylococcus aureus, ATCC33591; Sa91, methicillin-resistant S. aureus ATCC 33591; n = 3; read-out: MIC
Procedure: as §1

[7] = system: S. aureus ATCC 33592 (Sa92); experiment: MIC, microdilution (CLSI); format: cell-based; settings: Staphylococcus aureus, ATCC33592; Sa92, methicillin-resistant S. aureus ATCC 33592; n = 3; read-out: MIC
Procedure: as §1

[8] = system: S. aureus ATCC 700699 (Sa99); experiment: MIC, microdilution (CLSI); format: cell-based; settings: Staphylococcus aureus, ATCC700699; Sa99, methicillin-resistant S. aureus ATCC 700699; n = 3; read-out: MIC
Procedure: as §1

[9] = system: S. aureus BAA-2312 (Sa12); experiment: MIC, microdilution (CLSI); format: cell-based; settings: Staphylococcus aureus, BAA2312; Sa12, methicillin-resistant S. aureus BAA-2312; n = 3; read-out: MIC
Procedure: as §1

[10] = system: S. epidermidis ATCC 700296 (Se); experiment: MIC, microdilution (CLSI); format: cell-based; settings: Staphylococcus epidermidis, ATCC700296; Se, S. epidermidis ATCC 700296; n = 3; read-out: MIC
Procedure: as §1

[11] = system: S. aureus biofilms (Sa23); experiment: Biofilm eradication (MBEC), Calgary Biofilm Device; format: cell-based, Staphylococcus aureus
Procedure: (§2) Minimum biofilm eradication concentration (MBEC) was determined using a Calgary device using the protocol reported elsewhere with some modifications. The Calgary device is a 96-well plate with a lid containing pegs to establish biofilms. Bacteria from an overnight plate culture were suspended to a 0.5 McFarland turbidity, then diluted 1:100 in a CAMHB containing 1% glucose which was inoculated in the 96 wells (150 μL in each well) and incubated at 35 °C for 24 h to establish biofilm on the pegs. The lid was then removed, washed with PBS in a fresh 96 well plate, then transferred to another 96-well plate containing 2-fold serial dilutions of the test compounds dissolved in PBS (150 μL total volume in each well). This plate was called the “challenge plate”. The challenge plate was incubated for an additional 24 h, and the lid was transferred to the next 96-well plate containing fresh CAMHB media with 1% glucose (180 μL) and further incubated for 24 h. […] All the compounds were tested in a minimum of three independent experiments.

[12] = system: E. faecalis biofilms (Efs12); experiment: Biofilm eradication (MBEC), Calgary Biofilm Device; format: cell-based
Procedure: as §2

[13] = system: MRSA (S. aureus ATCC 700699); experiment: Time Kill Assay; format: cell-based, Staphylococcus aureus; settings: 4× MIC, positive controls
[14] = system: S. aureus ATCC 700699 persisters; experiment: Persister viability assay; format: cell-based, Staphylococcus aureus; settings: 32× MIC, 4 h; for activity against persisters: S. aureus ATCC 700699 persisters
Procedure: (§3) The persister assay was performed following the methodology described previously. Briefly, for persister viability assays, S. aureus ATCC 700699 strain (MRSA) was grown to stationary phase in CAMHB medium by shaking at 200 rpm in a shaking incubator for 24 h at 35 °C. […] After incubation, 400 µL aliquot was washed, serially diluted in PBS, and plated in blood agar plate for viable colony count.

[15] = Cytotoxicity assay (resazurin); format: cell-based; settings: human, HEK-293 cells, 24 h treatment, n = 3
Procedure: The human embryonic kidney cell line (HEK-293) was used to assess the cytotoxicity of the antibiotics as described by us previously. HEK-293 cells were cultured in Dulbecco’s modified eagle’s medium (DMEM) containing 10% Fetal Bovine Serum (FBS) and incubated at 37 °C in the presence of 5% carbon dioxide. HEK-293 cells were cultured in 96-well black plates with 6000 cells per well for the first 24 h followed by treatment with a range of concentrations of antibiotics dissolved in DMSO for the next 24 h. After the second period of incubation, resazurin (40 µL of 0.15 mg/mL) was added to each well and incubated for an additional 4 h. Reduction of resazurin was measured fluorometrically with excitation wavelength at 560 nm and emission at 590 nm using BioTek™ Cytation™5 plate reader. Percentage viability of HEK cells for each range of concentrations was calculated, taking the fluorescence value of the wells treated with DMSO as a reference, using Microsoft® Excel® for Office 365 MSO. IC50 values were computed using the calculated percentage viability values through data processing in Graphpad Prism 7 for Windows, Version 7.04.

[16] = system: MRSA persisters (S. aureus ATCC 700699); experiment: Persister Time Kill Assay; format: cell-based, Staphylococcus aureus; settings: for decrease of persister cells: 2× MIC, 8 h; for persisters eradicated: within 8 h at all the 4× MIC, 8× MIC and 16× MIC concentrations
Procedure: as §3
Likewise, for persister time-kill assays, the persister cells were treated at varied concentrations and incubated with shaking. At the start and every 2 h until 8 h, 400 µL samples were washed, serially diluted, and plated on blood agar using the 6 × 6 drop plate method. Plates were incubated for 18–20 h at 35 °C, before the colonies were counted to calculate CFU/mL. All the treatments were performed in triplicates.

[17] = system: S. aureus and E. faecalis biofilms; experiment: Biofilm eradication, S. aureus and E. faecalis; format: cell-based
Procedure: as §2

MIC [1] [µg/mL] | MIC [2] [µg/mL] | MIC [3] [µg/mL] | MIC [4] [µg/mL] | MIC [5] [µg/mL] | MIC [6] [µg/mL] | MIC [7] [µg/mL] | MIC [8] [µg/mL] | MIC [9] [µg/mL] | MIC [10] [µg/mL] | SMILES | MBEC [11] [µg/mL] | MBEC [12] [µg/mL] | time to eliminate >99.9% CFUs [13] [h] | activity against persisters [14] | IC50 at 24 h [15] [µg/mL] | reduction of the population of persisters compared to the positive controls [14] [log values] | decrease of persister cells [16] [log value] | persisters eradicated [16] | MBEC values [17] [µg/mL]
2 (≈ 1.23 µM) | 16 (≈ 9.87 µM) | 16 (≈ 9.87 µM) | 16 (≈ 9.87 µM) | 2 (≈ 1.23 µM) | 2 (≈ 1.23 µM) | 2 (≈ 1.23 µM) | 8 (≈ 4.94 µM) | 2 (≈ 1.23 µM) | 2 (≈ 1.23 µM) | CCCCCCCCCC(=O)N[C@@H](Cc1c[nH]c2ccccc12)C(=O)N[C@H](CC(N)=O)C(=O)N[C@@H](CC(=O)O)C(=O)N[C@@H]1C(=O)NCC(=O)N[C@@H](CCCN)C(=O)N[C@@H](CC(=O)O)C(=O)N[C@H](C)C(=O)N[C@@H](CC(=O)O)C(=O)NCC(=O)N[C@H](CO)C(=O)N[C@@H]([C@H](C)CC(=O)O)C(=O)N[C@@H](CC(=O)c2ccccc2N)C(=O)O[C@@H]1C [D, Daptomycin, reference compound] | >32 | >32 | 6 | failed to demonstrate persister kill activity |  |  |  |  | 
1 (≈ 1.71 µM) | 2 (≈ 3.42 µM) | 1 (≈ 1.71 µM) | 1 (≈ 1.71 µM) | 2 (≈ 3.42 µM) | 1 (≈ 1.71 µM) | 1 (≈ 1.71 µM) | 2 (≈ 3.42 µM) | 1 (≈ 1.71 µM) | 2 (≈ 3.42 µM) | O=C(O)c1ccc(-n2cc(CNc3ccc(Br)cc3)c(-c3cc(C(F)(F)F)cc(C(F)(F)F)c3)n2)cc1 [Compound 11, 4-[3-[3,5-Bis(trifluoromethyl)phenyl]-4-[(4-bromoanilino)methyl]pyrazol-1-yl] benzoic acid] |  | 4 |  | very effective | 7 to 8 (≈ 12 to 13.7 µM) | 4 | 1 | more than 3 log values | 
2 (≈ 3.14 µM) | 2 (≈ 3.14 µM) | 2 (≈ 3.14 µM) | 1 (≈ 1.57 µM) | 2 (≈ 3.14 µM) | 1 (≈ 1.57 µM) | 1 (≈ 1.57 µM) | 2 (≈ 3.14 µM) | 1 (≈ 1.57 µM) | 2 (≈ 3.14 µM) | O=C(O)c1ccc(-n2cc(CNc3ccc(Br)c(Cl)c3F)c(-c3cc(C(F)(F)F)cc(C(F)(F)F)c3)n2)cc1 [Compound 29, 4-[3-[3,5-Bis(trifluoromethyl)phenyl]-4-[(4-bromo-3-chloro-2-fluoro-anilino)methyl]pyrazol-1-yl] benzoic acid] |  | 2 |  | very effective | 7 to 8 (≈ 11 to 12.6 µM) | 4 | ~2 | more than 3 log values | ≥ 1
